Measured values taken from patent US12410171B2, “Tropomyosin receptor kinase (TRK) degradation compounds and methods of use” (Cullgen (Shanghai), Inc., priority 2020, dated 2025).
Where two headings read alike, the source gives them in different places.

Experiments:
[1] = system: KM12 cells; assay: KM12 cell viability (CellTiter-Glo); assay type: cell-based; settings: Homo sapiens
Method in brief: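 KM12 cells seeded at 5000 per well in RPMI 1640 + 10% FBS and exposed 3 days to serial dilutions (11-point 3-fold, 8-point 3-fold from 1000 nM, or 12-point 2-fold). Viability by CellTiter-Glo; IC50 from least-squares nonlinear regression.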

[2] = target: T1, TPM3-TRKA fusion protein (Homo sapiens, UniProt P04629); assay: TPM3-TRKA fusion protein levels in KM12 cells (Western blot); assay type: cell-based; settings: for percent degradation of TPM3-TRKA protein at 0.01 µM: read-out: Degradation (at 10 nM)
T1 construct: The resulted chimeric proteins always retain the kinase domain of TRK proteins; TPM3 (fusion partner, N-terminal part of tropomyosin alpha-3, P06753); endogenous in cells; host or cells: KM12 colon cancer cells; the other entry of the earlier key: TPM3 (P06753, Tropomyosin alpha-3 chain)
Method in brief: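 KM12 colon cancer cells were treated with DMSO or compounds at 0.1–100 nM, 0.4–30 nM or other stated concentrations for 4, 8–16 or 16 h. RIPA lysates were BCA-normalized and resolved by SDS-PAGE. TPM3-TRKA was detected by chemiluminescent Western blot, with bands quantified by densitometry.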

[3] = 72 h, KM12 cell viability, CellTiter-Glo, three days treatment, read-out: IC50
[4] = 16 h, TPM3-TRKA degradation in KM12 cells at 10 nM compound, category of percentage degradation

T1 sequence (P04629 with tags, fused parts or gaps): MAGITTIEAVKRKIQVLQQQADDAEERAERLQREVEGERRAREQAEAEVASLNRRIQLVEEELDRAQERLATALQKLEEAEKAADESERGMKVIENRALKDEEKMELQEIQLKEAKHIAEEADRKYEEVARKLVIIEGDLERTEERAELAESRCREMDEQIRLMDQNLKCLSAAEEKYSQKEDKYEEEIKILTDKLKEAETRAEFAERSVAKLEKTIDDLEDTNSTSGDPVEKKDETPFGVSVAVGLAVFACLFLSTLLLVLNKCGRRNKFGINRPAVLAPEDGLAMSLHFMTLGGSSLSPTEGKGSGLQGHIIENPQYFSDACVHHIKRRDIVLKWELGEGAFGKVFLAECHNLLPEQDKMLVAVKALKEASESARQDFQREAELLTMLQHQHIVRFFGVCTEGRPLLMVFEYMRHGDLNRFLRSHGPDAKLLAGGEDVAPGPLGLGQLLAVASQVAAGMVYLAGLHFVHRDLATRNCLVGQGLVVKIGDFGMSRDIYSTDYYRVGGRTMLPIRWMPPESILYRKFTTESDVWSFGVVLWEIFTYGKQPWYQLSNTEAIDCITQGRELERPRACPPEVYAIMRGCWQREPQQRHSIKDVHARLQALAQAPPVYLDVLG

Structure (SMILES) | IC50 [1, 3] | percent degradation of TPM3-TRKA protein at 0.01 µM [2, 4] | further results
NC(=O)C1CCN(c2cc(CN3CCN(C(=O)CCOCCOCCOCCNc4cccc5c4C(=O)N(C4CCC(=O)NC4=O)C5=O)CC3)ccc2NC(=O)c2coc(N3CCOCC3)n2)CC1 (stereo not drawn) [CPD-487, N-(2-(4-carbamoylpiperidin-1-yl)-4-((4-(3-(2-(2-(2-((2-(2,6-dioxopiperidin-3-yl)-1,3-dioxoisoindolin-4-yl)amino)ethoxy)ethoxy)ethoxy)propanoyl)piperazin-1-yl)methyl)phenyl)-2-morpholinooxazole-4-carboxamide] | – | – | IC50 ([1]; 72 h, KM12 cell viability, 11-point 3-fold serial dilution, 3 days, CellTiter-Glo, read-out: IC50): 121 nM; percent degradation of TPM3-TRKA protein at 0.01 µM ([2]; 16 h, TPM3-TRKA degradation in KM12 cells at 10 nM): 50 to 80%
O=C(CN1CCN(c2cccc(-c3cnc4ccc(N5CCC[C@@H]5c5cccc(F)c5)nn34)n2)CC1)NCCNc1ccc2c(c1)C(=O)N(C1CCC(=O)NC1=O)C2=O (stereo partly drawn) [TR-130, N-(2-((2-(2,6-dioxopiperidin-3-yl)-1,3-dioxoisoindolin-5-yl]amino)ethyl)-2-(4˜ (6˜ (6-((R)-2-(3-fluorophenyl)pyrrolidin-1-yl)imidazo[1,2-b]pyridazin-3-yl)pyridin-2-yl)piperazin-1-yl)acetamide] | 0.9 nM | > 80% | –
O=C1CCC(N2C(=O)c3ccc(N4CC(CN5CCN(c6ccc(C(=O)Nc7n[nH]c8ccc(Cc9cc(F)cc(F)c9)cc78)cc6)CC5)C4)cc3C2=O)C(=O)N1 (stereo not drawn) [TR-265, N-(5˜ (3,5-difluorobenzyl)-1H-indazol-3-yl)-4-(4-((1-(2-(2,6-dioxopiperidin-3-yl)-1,3-dioxoisoindolin-5-yl)azetidin-3-yl)methyl)piperazin-1-yl)benzamide] | 13.3 nM | > 80% | –
O=C1CC[C@H](N2C(=O)c3ccc(N4CC(N5CCN(c6ccc(C(=O)Nc7n[nH]c8ccc(Cc9cc(F)cc(F)c9)cc78)c(NC7CCOCC7)c6)CC5)C4)cc3C2=O)C(=O)N1 [TR-343, (S)—N-(5-(3,5-difluorobenzyl)-1H-indazol-3-yl)-4-(4-(1˜ (2-(2,6-dioxopiperidin-3-yl)-1,3-dioxoisoindolin-5-yl)azetidin-3-yl)piperazin-1-yl)-2-((tetrahydro-2H-pyran-4-yl)amino)benzamide] | 9 nM | > 80% | relative effectiveness at degrading TRKA ([2]; KM12 cells, 0.4-30 nM, 8-16 hours, comparison of enantiomers (FIG. 28A-28B)): more effective at degrading TRKA at lower concentrations than TR-344
Cn1c(=O)n(C2CCC(=O)NC2=O)c2ccc(C#CCCN3CCN(c4cccc(-c5cnc6ccc(N7CCC[C@@H]7c7cccc(F)c7)nn56)n4)CC3)cc21 (stereo partly drawn) [TR-260, 3-(5-(4-(4-(6-(6-((R)-2-(3-fluorophenyl)pyrrolidin-1-yl)imidazo[1,2-b]pyridazin-3-yl)pyridin-2-yl)piperazin-1-yl)but-1-yn-1-yl)-3-methyl-2-oxo-2,3-dihydro-1H-benzo[d]imidazol-1-yl)piperidine-2,6-dione] | 26.4 nM | > 80% | –
O=C1CCC(n2nnc3cccc(N4CC(CN5CCN(c6ccc(C(=O)Nc7n[nH]c8ccc(Cc9cc(F)cc(F)c9)cc78)c(NC7CCOCC7)c6)CC5)C4)c3c2=O)C(=O)N1 (stereo not drawn) [TR-326, N-(5-(3,5-Difluorobenzyl)-1H-indazol-3-yl)-4-(4-((1˜ (3-(2,6-dioxopiperidin-3-yl)-4-oxo-3,4-dihydrobenzo[d][1,2,3]triazin-5-yl)azetidin-3-yl)methyl)piperazin-1-yl)-2-((tetrahydro-2H-pyran-4-yl)amino)benzamide] | 14 nM | 50 to 80% | –
O=C1CCC(N2C(=O)c3ccc(N4CCC(CN5CCN(c6cccc(-c7cnc8ccc(N9CCC[C@@H]9c9cccc(F)c9)nn78)n6)CC5)C4)cc3C2=O)C(=O)N1 (stereo partly drawn) [TR-225, 2-(2,6-dioxopiperidin-3-yl)-5-(3-((4-(6-(6-((R)-2˜ (3-fluorophenyl)pyrrolidin-1-yl)imidazo[1,2-b]pyridazin-3-yl)pyridin-2-yl)piperazin-1-yl)methyl)pyrrolidin-1-yl)isoindoline-1,3-dione] | 8.4 nM | > 80% | –
Cn1c(=O)n(C2CCC(=O)NC2=O)c2cccc(CCCN3CCN(c4ccc(C(=O)Nc5n[nH]c6ccc(Cc7cc(F)cc(F)c7)cc56)c(NC5CCOCC5)c4)CC3)c21 (stereo not drawn) [TR-305, N-(5-(3,5˜Difluorobenzyl)-1H-indazol-3-yl)-4-(4-(3-(1-(2,6-dioxopiperidin-3-yl)-3-methyl-2-oxo-2,3-dihydro-1H-benzo[d]imidazol-4-yl)propyl)piperazin-1-yl)-2-((tetrahydro-2H-pyran-4-yl)amino)benzamide] | 2.5 nM | > 80% | –
O=C1CCC(N2C(=O)c3ccc(CN4CC(N5CCN(c6cccc(-c7cnc8ccc(N9CCC[C@@H]9c9cccc(F)c9)nn78)n6)CC5)C4)cc3C2=O)C(=O)N1 (stereo partly drawn) [TR-237, 2-(2,6-dioxopiperidin-3-yl)-5-((3-(4-(6-(6-((R)-2-(3-fluorophenyl)pyrrolidin-1-yl)imidazo[1,2-b]pyridazin-3-yl)pyridin-2-yl)piperazin-1-yl)azetidin-1-yl)methyl)isoindoline-1,3-dione] | 138 nM | > 80% | –
O=C1CCC(N2C(=O)Cc3c(NCCN4CCN(c5cccc(-c6cnc7ccc(N8CCC[C@@H]8c8cccc(F)c8)nn67)n5)CC4)cccc32)C(=O)N1 (stereo partly drawn) [TR-236, 3-(4-((2-(4-(6-(6-((R)-2-(3-Fluorophenyl)pyrrolidin-1-yl)imidazo[1,2-b]pyridazin-3-yl)pyridin-2-yl)piperazin-1-yl)ethyl)amino)-2-oxoindolin-1-yl)piperidine-2,6-dione] | 99.2 nM | < 50% | –
O=C1CCC(N2Cc3ccc(N4CC(N5CCN(c6ccc(C(=O)Nc7n[nH]c8ccc(Cc9cc(F)cc(F)c9)cc78)c(NC7CCOCC7)c6)CC5)C4)cc3C2=O)C(=O)N1 (stereo not drawn) [TR-336, N—(S-(3,5-difluorobenzyl)-1H-indazol-3-yl)-4-(4-(1-(2-(2,6-dioxopiperidin-3-yl)-3-oxoisoindolin-5-yl)azetidin-3-yl)piperazin-1-yl)-2-((tetrahydro-2H-pyran-4-yl)amino)benzamide] | 3.2 nM | > 80% | –
O=C1CCC(N2C(=O)c3ccc(N4CC(OC5CCN(c6cccc(-c7cnc8ccc(N9CCC[C@@H]9c9cccc(F)c9)nn78)n6)CC5)C4)cc3C2=O)C(=O)N1 (stereo partly drawn) [TR-287, 2-(2,6-dioxopiperidin-3-yl)-5-(3-((1-(6-(6-((R)-2˜ (3-fluorophenyl)pyrrolidin-1-yl)imidazo[1,2-b]pyridazin-3-yl)pyridin-2-yl)piperidin-4-yl)oxy)azetidin-1-yl)isoindoline-1,3-dione] | 19.3 nM | > 80% | –
Cn1c(=O)n(C2CCC(=O)NC2=O)c2ccc(NCCCN3CCN(c4ccc(C(=O)Nc5n[nH]c6ccc(Cc7cc(F)cc(F)c7)cc56)c(NC5CCOCC5)c4)CC3)cc21 (stereo not drawn) [TR-316, N-(5-(3,5-difluorobenzyl)-1H-indazol-3-yl)-4-(4-(3-((1-(2,6-dioxopiperidin-3-yl)-3-methyl-2-oxo-2,3-dihydro-1H-benzo[d]imidazol-5-yl)amino)propyl)piperazin-1-yl)-2-((tetrahydro-2H-pyran-4-yl)amino)benzamide] | 2.3 nM | > 80% | –
Cn1c(=O)n(C2CCC(=O)NC2=O)c2cccc(C#CCCN3CCN(c4ccc(C(=O)Nc5n[nH]c6ccc(Cc7cc(F)cc(F)c7)cc56)c(NC5CCOCC5)c4)CC3)c21 (stereo not drawn) [TR-306, N-(5-(3,5-difluorobenzyl)-1H-indazol-3-yl)-4-(4-(4-(1-(2,6-dioxopiperidin-3-yl)-3-methyl-2-oxo-2,3-dihydro-1H-benzo[d]imidazol-4-yl)but-3-yn-1-yl)piperazin-1-yl)-2-((tetrahydro-2H-pyran-4-yl)amino)benzamide] | 4 nM | > 80% | –
O=C1CCC(N2C(=O)c3ccc(N4CCC(CN5CCN(c6ccc(C(=O)Nc7n[nH]c8ccc(Cc9cc(F)cc(F)c9)cc78)c(NC7CCOCC7)c6)CC5)CC4)cc3C2=O)C(=O)N1 (stereo not drawn) [TR-271, N-(5-(3,5-Difluorobenzyl)-1H-indazol-3-yl)-4-(4-((1-(2-(2,6-dioxopiperidin-3-yl)-1,3-dioxoisoindolin-5-yl)piperidin-4-yl)methyl)piperazin-1-yl)-2-((tetrahydro-2H-pyran-4-yl)amino)benzamide] | 22 nM | > 80% | –
Cn1c(=O)n(C2CCC(=O)NC2=O)c2cccc(OCCN3CCN(c4ccc(C(=O)Nc5n[nH]c6ccc(Cc7cc(F)cc(F)c7)cc56)c(NC5CCOCC5)c4)CC3)c21 (stereo not drawn) [TR-322, N-(5-(3,5˜Difluorobenzyl)-1H-indazol-3-yl)-4-(4-(2-((1-(2,6-dioxopiperidin-3-yl)-3-methyl-2-oxo-2,3-dihydro-1H-benzo[d]imidazol-4-yl)oxy)ethyl)piperazin-1-yl)-2-((tetrahydro-2H-pyran˜4-yl)amino)benzamide] | – | – | IC50 ([1]; KM12, 72 h): 168 nM; percent degradation of TPM3-TRKA protein at 0.01 µM ([2]; KM12, 16 h): < 50%
